Measurements: PMC4357715, “The beta hairpin structure within ribosomal protein S5 mediates interplay between domains II and IV and regulates HCV IRES function” (Nucleic Acids Research, 2015)

Tests used:
HCV IRES = assay: Ribosomal assembly assay on HCV IRES in RRL; format: biochemical, Hepatitis C Virus; settings: wild-type 32P-labelled HCV IRES RNA; 2 mM GMP-PNP or 20 mM cycloheximide
Protocol: ^32P-labelled wild type or mutant HCV IRES RNA (3 × 10^5 c.p.m.) was added to 25 μl of translation reaction containing 17.5 μl of rabbit reticulocyte lysate (RRL). The reactions were incubated at 30°C for 15 min and diluted to 150 μl with ice cold gradient buffer (20 mM Tris–HCl pH 7.5, 100 mM KCl, 3 mM MgCl2, 1 mM Dithiothreitol (DTT)) and overlaid in 5–30% sucrose gradient. The ribosomal complexes were separated by ultracentrifuge for 3 h at 30 000 rpm at 4°C in TH-641 rotor (Thermo Scientific). Fractions (330 μl) were manually collected from the top of the tube and radioactivity was measured in a liquid scintillation counter. To validate the peaks, in vitro translation was performed in presence of 2 mM 5′-guanylyl imidodiphosphate (GMP-PNP) or 20 mM of cycloheximide and peaks were resolved on sucrose gradient.
We confirmed the 48S and 80S peaks in the ribosome assembly profile by using GMPPNP and cycloheximide respectively. As expected GMPPNP and cycloheximide stalled translation at the 48S and 80S stages, respectively (Figure 3A).
Figure 3. Ribosome assembly on wild type and mutant HCV IRES. (A) Ribosome assembly on wild-type ^32P-labelled HCV IRES RNA in the presence of either cycloheximide or GMPPNP. […] Different fractions were collected and the radioactivity associated with each fraction was measured. […]

[1] = system: global protein synthesis in Huh7 cells; assay: 35S-Methionine metabolic labelling; format: cell-based; settings: cycloheximide 100 μg/ml, positive control
Protocol: Forty-eight hours after transfection, medium was replaced with serum free DMEM lacking methionine and cysteine (Sigma) and incubated for 1 h. Then 100 μci of ^35S in vivo pro-twin label mix (BRIT) was added to each well and cells were labelled for 30 min. Cells treated with 100 μg/ml concentration of cycloheximide were taken as positive control for global translation shut down. After labelling the cells, media was removed and the cells were washed three times with ice-cold phosphate buffered saline (PBS). Cells were harvested and lysed in the 100 μl of RIPA buffer lacking SDS (50 mM Tris–HCl pH 7.4, 150 mM NaCl, 1 mM EDTA, 1% NP-40, 0.25% sodiumdeoxycholate) containing protease inhibitors (complete EDTA-free protease inhibitor, Roche). The protein concentration of the lysate was then estimated by Bradford assay. Twenty-five micrograms of protein from each sample was mixed with 0.1 mg BSA and ice-cold TCA was added to a final concentration of 20%. The samples were incubated for 30 min on ice and loaded on prewet (with 20% TCA) glass microfibre filters (Whatmann). The filters were washed with 1 ml of 20% TCA twice and once with 1 ml of 100% ethanol. The filters were then incubated overnight with 4 ml of scintillation liquid and counts were taken.
Figure 6. Role of RPS5 in HCV translation and replication. […] Huh7 cells were transfected with siNSP RNA or siRPS5 RNA. […]

Question: For `Nc1nc2c(ncn2[C@@H]2O[C@H](COP(=O)(O)OP(=O)(O)NP(=O)(O)O)[C@@H](O)[C@H]2O)c(=O)[nH]1` [GMPPNP, 5′-guanylyl imidodiphosphate], which “stage at which translation is stalled” value (HCV IRES) is on record?
Answer: Its value is 48S.

Question: `C[C@@H]1C[C@@H]([C@H](O)CC2CC(=O)NC(=O)C2)C(=O)[C@@H](C)C1` [cycloheximide] was tested. Which “stage at which translation is stalled” value (HCV IRES) did it give?
Answer: Its value is 80S.

Question: What about the “reduction of protein levels (35S-methionine incorporation)” value [1] of the same compound?
Answer: Its value is ~75%.
